Reference: US20240368192A1, “Nitrogen-Containing Heterocyclic Compound, and Preparation Method Therefor, Intermediate Thereof, and Application Thereof” (Shanghai Allist Pharmaceuticals Co., Ltd., priority 2021, published 2024)
pIC50: −log10 of the molar value.

Key:
Ba/F3 KRAS-G12D cells = Ba/F3 KRAS-G12D cells (Homo sapiens, UniProt P01116, G12D, cells depend on it); assay: Proliferation inhibitory activity on Ba/F3 KRAS-G12D stably transfected cell line (CellTiter-Glo, 72 hours); assay type: cell-based, mouse; conditions: read-out: Ba/F3 KRAS-G12D IC50
Excerpt: (§1) Test Example 1: Proliferation Inhibitory Activity on Ba/F3 KRAS-G12D, Ba/F3 KRAS-G12V Stably Transfected Cell Lines and AGS Tumor Cell Lines Containing KRAS G12D Mutations
(§2) To determine the proliferation inhibitory activity of the compounds in vitro on mouse pro-B cells Ba/F3 (Ba/F3 KRAS-G12D and Ba/F3 KRAS-G12V cells stably expressing KRAS G12D/V mutant proteins) and gastric cancer AGS cells expressing KRAS G12D mutant protein.
(§3) Cell sources. Ba/F3 KRAS-G12D and Ba/F3 KRAS-G12V were purchased from Kyinno Biotech (Beijing) Co., Ltd, Cat. No.: KC-1259 and KC-1261, respectively; AGS was purchased from Shanghai Bioleaf Biotech Co., Ltd.
(§4) Cells in the logarithmic growth phase were seeded in a 96-well plate (8000, 8000, 4000 cells/well, 90 μL/well for Ba/F3 KRAS-G12D, Ba/F3 KRAS-G12V, and AGS cells respectively), incubated at 37° C. for 1 day with 5% CO2, and then a gradient dilution of the test compound was added thereto (compounds 1 to 28 and comparative compounds). The details were as follows, the compound stock solution (10 mM) previously dissolved in DMSO was diluted to 10 gradient concentrations at a fold ratio (4 fold) and diluted to 10 fold of the target concentration in another 96-well plate with culture medium, and then 10 μL/well of the compound solution was added to the 96-well plate seeded with cells to reach the target concentration (10000, 2500, 625, 156, 39, 10, 2.5, 0.6, 0.15, 0.04 nM). Each concentration was provided with 3 duplicate wells and a blank control. After continued incubation at 37° C. and 5% CO2 for 72 hours, 50 μL of CellTiter-Glo*2.0 reagent (luciferase ATP bioluminescence detection reagent, purchased from Promega, Cat. No.: G9243) was added to each well, shaken for 2 minutes, and incubated at room temperature for 8 minutes, and then fluorescence luminescence intensity was detected (light collection time was 100 ms). The inhibitory rate of compounds with various concentrations on cell proliferation was calculated. Cell proliferation inhibition rate (%)=[(luminous intensitycontrol group containing cell culture medium for 72 hour−luminous intensitycompound group for 72 hour)/(luminous intensitycontrol group containing cell culture medium for 72 hours−luminous intensitycontrol group without cell culture medium for 72 hour)]×100%. GraphPad Prism 8.3 software was used to analyze the data, and nonlinear S-curve regression was used to fit the data to obtain a dose-effect curve, from which the IC50 value was calculated.

HPAC cells = assay: In vivo efficacy in HPAC cell line xenograft tumor model; conditions: 30 mg/kg intraperitoneally twice a day for 10 days, day 10 vs day 0, HPAC xenograft in BALB/c nude mice
Procedure: Test Example 2: In Vivo Efficacy of Test Compounds in HPAC Model
This experiment is used to evaluate the in vivo efficacy of compounds in the HPAC model.
Source of experimental animals: Beijing Vital River Laboratory Animal Technology Co., Ltd., certificate number: 20170011007990.
Animal modeling and random grouping: HPAC cells were cultured and expanded to 30 T175 cm^2 culture flasks. Cells were collected, resuspended in serum-free culture medium DMEM for counting, and added with matrix glue at a ratio of 1:1, and inoculated into the right anterior subcutaneous region of BALB/c Nude mice at 5×10^6 cells/0.1 mL. When the average tumor volume reached approximately 281 mm^3, mice were randomly divided into various experimental groups according to tumor size, with 5 mice per group. The day of grouping was defined as day 0, that is, DO.
Experimental scheme: BALB/c nude mice were subcutaneously inoculated with HPAC cells to establish a cell line xenograft tumor model. The test was divided into a 30 mg/kg group of compound 21, a 30 mg/kg group of comparative compound, and a vehicle group, with 5 mice in each group. […] During the entire experiment, the body weight and tumor size of the mice were measured on days 4, 7, and 10 to observe whether toxic reactions occurred. Efficacy was evaluated based on relative tumor proliferation rate. […]

AGS cells = assay: Proliferation inhibitory activity on AGS tumor cell line containing KRAS G12D mutation (CellTiter-Glo, 72 hours); assay type: cell-based; conditions: Homo sapiens
Excerpt: as §1, §2, §3, §4

Ba/F3 KRAS-G12V cells = Ba/F3 KRAS-G12V cells (Homo sapiens, UniProt P01116, G12V, cells depend on it); assay: Proliferation inhibitory activity on Ba/F3 KRAS-G12V stably transfected cell line (CellTiter-Glo, 72 hours); assay type: cell-based, mouse; conditions: read-out: Ba/F3 KRAS-G12V IC50
Excerpt: as §1, §2, §3, §4

[1] = Body weight change of mice in HPAC xenograft model; assay type: in vivo; conditions: 30 mg/kg intraperitoneally twice a day for 10 days, vs D0 weight, HPAC xenograft in BALB/c nude mice
Procedure: Experimental scheme: BALB/c nude mice were subcutaneously inoculated with HPAC cells to establish a cell line xenograft tumor model. The test was divided into a 30 mg/kg group of compound 21, a 30 mg/kg group of comparative compound, and a vehicle group, with 5 mice in each group. The mice were administered intraperitoneally in an administration volume of 10 μL/g. The vehicle group was given an equal amount of vehicle (sulfobutyl-β-cyclodextrin sodium salt dissolved in 50 mM citric acid buffer, the mass-to-volume concentration of sulfobutyl-β-cyclodextrin sodium salt was 10%, and the pH value of the vehicle was 5.0), administered twice a day for 10 days. During the entire experiment, the body weight and tumor size of the mice were measured on days 4, 7, and 10 to observe whether toxic reactions occurred. Efficacy was evaluated based on relative tumor proliferation rate. Other compounds of the present disclosure (compounds 1 to 20 and 22 to 28) were tested with reference to compound 21. Formula for calculating weight change: weight change (%)=(weight/D0 weight−1)×100%.

Chain of Ba/F3 KRAS-G12D cells (P01116 whole entry G12D): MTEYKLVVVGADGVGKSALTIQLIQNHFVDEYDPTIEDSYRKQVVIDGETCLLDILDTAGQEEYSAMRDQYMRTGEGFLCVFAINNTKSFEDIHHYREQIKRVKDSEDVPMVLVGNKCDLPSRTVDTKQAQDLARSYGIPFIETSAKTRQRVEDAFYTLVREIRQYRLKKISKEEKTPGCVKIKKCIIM
Chain of Ba/F3 KRAS-G12V cells (P01116 whole entry G12V): as the sequence (P01116 whole entry G12D) above, with D12V counted along it

Compound: C#Cc1c(F)ccc2cc(O)cc(-c3nc(Cl)c4c(N5C[C@H]6CC[C@@H](C5)N6)nc(OC[C@@]56CCCN5C[C@H](F)C6)nc4c3F)c12 [Compound 21, 4-(4-((1R,5S)-3,8-Diazabicyclo[3.2.1]octan-3-yl)-5-chloro-8-fluoro-2-(((2R,7aS)-2-fluorohexahydro-1H-pyrrolizin-7a-yl)methoxy)pyrido[4,3-d]pyrimidin-7-yl)-5-ethynyl-6-fluoronaphthalen-2-ol]
- GI50 (Ba/F3 KRAS-G12D cells): 1 nM
- T/C % (relative tumor proliferation rate) (HPAC cells): −64.96%
- pIC50 (AGS cells): 8.05
- GI50 (Ba/F3 KRAS-G12V cells): 5000 to 10000 nM
- Weight change (%) [1]: −7.27%
